Measurements taken from patent US9969723B2, “3-(4-(benzyloxy)phenyl)hex-4-ynoic acid derivative, method of preparing same and pharmaceutical composition for preventing and treating metabolic disease including same as effective ingredient” (HYUNDAI PHARM CO., LTD, priority 2014, dated 2018).
Like-named read-outs stand apart in the source and are kept apart here.

Experiments:
GPR40 = GPR40 (Homo sapiens (Human), UniProt O14842); test: GPR40 protein activity by intracellular calcium concentration (Fluo-4, Flexstation 3) in transfected HEK-293 cells; format: cell-based; settings: HEK-293 cells transfected with human GPR40, intracellular calcium
GPR40, sequence (O14842 whole entry): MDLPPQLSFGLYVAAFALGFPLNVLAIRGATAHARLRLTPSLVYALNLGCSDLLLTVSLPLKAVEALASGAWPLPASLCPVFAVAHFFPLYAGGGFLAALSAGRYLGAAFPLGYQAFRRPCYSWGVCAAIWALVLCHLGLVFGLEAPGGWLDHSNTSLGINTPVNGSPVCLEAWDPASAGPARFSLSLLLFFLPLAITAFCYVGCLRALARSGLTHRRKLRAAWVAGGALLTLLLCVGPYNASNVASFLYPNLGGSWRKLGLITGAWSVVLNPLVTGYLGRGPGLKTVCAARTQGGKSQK
Procedure: The GPR40 protein activity according to the novel 3-(4-(benzyloxy)phenyl)hex-4-inoic acid derivative of the present invention was measured by investigating the changes in intracellular calcium concentration affected by the GRP40 activation. First, HEK-293 cells were transfected with human GPR40 DNA (Origene, RC218370) by using Fugene HD (Promega, E2311). […] 24 hours later, the cell culture medium was replaced with Dulbecco's Modified Eagle Medium (DMEM, 50 μl/well) supplemented with 1% fetal bovine serum (FBS). To measure the calcium concentration, 50 μl of Fluo-4 reagent (Invitrogen, F10471) was added to each well, followed by culture in a 37° C. incubator for 2 hours. […] 2 hours after the culture began, those prepared samples were automatically injected to the cells by using Flexstation 3 (Molecular Devices). Then, intracellular calcium concentration was measured for 120 seconds by using SoftMax® Pro software. At this time, dimethylsulfoxide (DMSO) was injected to the cells for the non-treated group, followed by measuring the calcium concentration therein. The GPR40 protein activity was calculated by the below mathematical formula 1 with the results of calcium concentration measurement. GPR40 activity=(intracellular calcium concentration increased by the sample)/(intracellular calcium concentration of the non-treated group)×100 [Mathematical Formula 1]

[1] = test system: Male Goto-Kakizaki (GK) rats, the type II diabetes animal model (not obesity); test: Oral glucose tolerance test (OGTT) 2; format: in vivo, rat
Procedure: (§1) Male Goto-Kakizaki (GK) rats at 22˜23 weeks, the type II diabetes animal model (not obesity), were adapted at least for 7 days. Only healthy animals were selected thereafter, followed by OGTT. After fasting for 16˜18 hours, 5 rats per group were randomly selected and orally administered with the compounds prepared in Examples 5, 9, 14, 28, 37, and 47 at the dose of 0.3˜10 mg/kg. At this time, 5% polyethyleneglycol (PEG) was orally administered at the same dose to the non-treated group rats. 60 minutes after the sample administration, glucose (4 g/kg) was orally administered thereto at the dose of 5 ml/kg. Then, blood glucose was measured by using Accu-chek active strip (Roche diagnostic Co.). The time for the measurement was set at 60 minutes before the glucose administration (−60), 0 minute, 20 minutes, 40 minutes, 60 minutes, and 120 minutes after the glucose administration, and blood glucose was measured through tail vein puncture.

[2] = test system: Male OLETF (Otsuka Long-Evans Tokushima fatty) rats, the type II diabetes animal model (obesity); test: Oral glucose tolerance test (OGTT) 3; format: in vivo, rat
Procedure: as §1, with “OLETF (Otsuka Long-Evans Tokushima fatty)” for “Goto-Kakizaki (GK)”, “29˜30” for “22˜23”, “(obesity),” for “(not obesity),”, “1˜10” for “0.3˜10”

CYP3A4 = CYP3A4 (Homo sapiens (Human), UniProt P08684); test: CYP inhibition (BD GENTEST kit); format: in vitro ADME; settings: CYP3A4 enzyme of BD GENTEST inhibition kit, pH 7.4, read-out: CYP inhibition (%) 3A4
CYP3A4, sequence (P08684 whole entry): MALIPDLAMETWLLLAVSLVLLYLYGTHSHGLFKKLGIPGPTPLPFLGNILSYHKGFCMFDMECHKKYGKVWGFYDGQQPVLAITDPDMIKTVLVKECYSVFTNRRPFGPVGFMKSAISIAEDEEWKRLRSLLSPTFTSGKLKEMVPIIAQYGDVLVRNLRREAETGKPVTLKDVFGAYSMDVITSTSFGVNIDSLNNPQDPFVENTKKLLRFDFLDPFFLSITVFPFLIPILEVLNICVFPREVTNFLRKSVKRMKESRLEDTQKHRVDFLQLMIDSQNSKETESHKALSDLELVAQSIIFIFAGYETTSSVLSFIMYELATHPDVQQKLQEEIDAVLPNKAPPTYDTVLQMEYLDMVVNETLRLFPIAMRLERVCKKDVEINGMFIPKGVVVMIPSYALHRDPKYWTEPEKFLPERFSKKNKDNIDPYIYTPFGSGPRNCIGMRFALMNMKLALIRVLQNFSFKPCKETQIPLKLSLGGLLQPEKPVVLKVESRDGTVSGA
Text: (§2) CYP is the enzyme involved in drug metabolism. So, the inhibition of this enzyme can change the prediction of dose of a drug and toxicity caused by the co-treatment with other drugs. Therefore, the inventors measured the inhibitory effect of the compounds of Examples of the invention on endogenous CYP3A4, CYP2C9, CYP1A2, CYP2D6, and CYP2C19. At this time, Invitrogen (P2862) was used as the CYP2D6 inhibition kit, and BD GENTEST (459100, 459300, 459400, 459500) was used as the CYP1A2, CYP2C9, CYP2C19, and CYP3A4 inhibition kit. To prepare the Invitrogen kit, the test sample was diluted in distilled water at 2.5× of the final experimental concentration.
(§3) The test sample for BD GENTEST kit was diluted in acetonitrile at 50× of the final experimental concentration. NADPH-coenzyme mixture was prepared by diluting the coenzyme, G6PDH, and regulatory protein included in the kit with distilled water at the concentration instructed by the kit. The prepared 50× sample (4 μL) and the NADPH-coenzyme mixture (96 μL) were mixed in each well of U-bottom 96-well plate, followed by pre-culture for 10 minutes in a 37° C. incubator. Enzyme/substrate mixed solution was prepared by diluting the buffer (0.5 M potassium phosphate, pH 7.4), each CYP450 enzyme/substrate mixed solution included in the kit with distilled water at the instructed concentration. Upon completion of the pre-culture, 100 μL of the enzyme/substrate mixed solution was added in each well of the plate, followed by culture in a 37° C. incubator for 15 minutes (CYP 1A2), 30 minutes (CYP 3A4 and CYP 2C19) or 1 and half hours (CYP 2C9). Upon completion of the reaction, the reactant was transferred onto the white plate, and then fluorescence was measured with a microplate reader (CYP 1A2 and CYP 2C19 excitation wavelength: 410 nm, absorption wavelength: 460 nm; CYP 2C9 and CYP 3A4 excitation wavelength: 409 nm, absorption wavelength: 530 nm). The values obtained above were converted into % as the inhibition rate of the sample by the value of the non-treated group.

CYP2C9 = CYP2C9 (Homo sapiens (Human), UniProt P11712); test: CYP inhibition (BD GENTEST kit); format: in vitro ADME; settings: CYP2C9 enzyme of BD GENTEST inhibition kit, pH 7.4, read-out: CYP inhibition (%) 2C9
CYP2C9, sequence (P11712 whole entry): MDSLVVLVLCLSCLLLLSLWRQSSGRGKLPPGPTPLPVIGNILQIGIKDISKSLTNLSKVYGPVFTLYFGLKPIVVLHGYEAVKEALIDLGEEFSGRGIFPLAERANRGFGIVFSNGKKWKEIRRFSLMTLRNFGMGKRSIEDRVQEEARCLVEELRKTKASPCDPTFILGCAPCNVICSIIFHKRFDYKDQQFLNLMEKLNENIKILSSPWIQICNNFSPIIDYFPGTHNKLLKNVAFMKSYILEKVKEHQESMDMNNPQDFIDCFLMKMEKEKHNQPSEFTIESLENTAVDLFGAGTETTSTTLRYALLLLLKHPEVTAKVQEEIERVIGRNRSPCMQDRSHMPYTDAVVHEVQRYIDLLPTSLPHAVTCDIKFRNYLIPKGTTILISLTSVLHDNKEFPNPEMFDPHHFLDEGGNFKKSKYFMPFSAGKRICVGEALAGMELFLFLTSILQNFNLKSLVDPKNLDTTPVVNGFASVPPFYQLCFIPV
Procedure: as §2, with “At this time, Invitrogen (P2862) was used as the CYP2D6 inhibition kit, and BD GENTEST (459100, 459300, 459400, 459500) was used as the CYP1A2, CYP2C9, CYP2C19, and CYP3A4 inhibition kit.” left out
as §3, with “Upon completion of the reaction, the reactant was transferred onto the white plate, and then fluorescence was measured with a microplate reader (CYP 1A2 and CYP 2C19 excitation wavelength: 410 nm, absorption wavelength: 460 nm; CYP 2C9 and CYP 3A4 excitation wavelength: 409 nm, absorption wavelength: 530 nm).” left out

CYP2C19 = CYP2C19 (Homo sapiens (Human), UniProt P33261); test: CYP inhibition (BD GENTEST kit); format: in vitro ADME; settings: CYP2C19 enzyme of BD GENTEST inhibition kit, pH 7.4, read-out: CYP inhibition (%) 2C19
CYP2C19, sequence (P33261 whole entry): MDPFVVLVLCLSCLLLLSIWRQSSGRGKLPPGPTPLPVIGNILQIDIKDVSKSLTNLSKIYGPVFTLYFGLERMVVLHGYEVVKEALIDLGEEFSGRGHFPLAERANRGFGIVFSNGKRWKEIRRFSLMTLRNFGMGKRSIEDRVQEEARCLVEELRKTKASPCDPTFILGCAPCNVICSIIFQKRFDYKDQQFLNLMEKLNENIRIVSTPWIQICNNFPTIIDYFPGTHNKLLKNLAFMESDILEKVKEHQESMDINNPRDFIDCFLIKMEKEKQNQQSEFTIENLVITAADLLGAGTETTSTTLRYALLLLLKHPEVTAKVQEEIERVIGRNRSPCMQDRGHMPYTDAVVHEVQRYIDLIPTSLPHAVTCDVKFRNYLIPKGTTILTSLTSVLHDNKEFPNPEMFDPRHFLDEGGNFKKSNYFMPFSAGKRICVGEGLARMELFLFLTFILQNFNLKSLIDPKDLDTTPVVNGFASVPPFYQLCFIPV
Procedure: as §2, with “At this time, Invitrogen (P2862) was used as the CYP2D6 inhibition kit, and BD GENTEST (459100, 459300, 459400, 459500) was used as the CYP1A2, CYP2C9, CYP2C19, and CYP3A4 inhibition kit.” left out
as §3, with “Upon completion of the reaction, the reactant was transferred onto the white plate, and then fluorescence was measured with a microplate reader (CYP 1A2 and CYP 2C19 excitation wavelength: 410 nm, absorption wavelength: 460 nm; CYP 2C9 and CYP 3A4 excitation wavelength: 409 nm, absorption wavelength: 530 nm).” left out

CYP1A2 = CYP1A2 (Homo sapiens (Human), UniProt P05177); test: CYP inhibition (BD GENTEST kit); format: in vitro ADME; settings: pH 7.4
CYP1A2, sequence (P05177 whole entry): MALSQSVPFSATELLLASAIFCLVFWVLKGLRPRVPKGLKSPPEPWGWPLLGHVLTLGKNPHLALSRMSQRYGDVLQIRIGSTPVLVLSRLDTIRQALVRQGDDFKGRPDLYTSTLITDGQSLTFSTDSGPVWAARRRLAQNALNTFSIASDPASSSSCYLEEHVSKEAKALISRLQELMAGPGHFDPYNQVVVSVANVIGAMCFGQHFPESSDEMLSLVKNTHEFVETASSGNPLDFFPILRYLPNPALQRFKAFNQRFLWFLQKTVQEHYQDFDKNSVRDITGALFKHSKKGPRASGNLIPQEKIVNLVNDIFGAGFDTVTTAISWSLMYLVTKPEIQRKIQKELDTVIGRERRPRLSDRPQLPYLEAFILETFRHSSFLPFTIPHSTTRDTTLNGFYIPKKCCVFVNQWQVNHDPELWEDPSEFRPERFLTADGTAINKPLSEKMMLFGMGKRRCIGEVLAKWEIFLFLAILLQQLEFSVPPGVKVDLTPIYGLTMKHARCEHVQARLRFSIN
Procedure: as §2, with “At this time, Invitrogen (P2862) was used as the CYP2D6 inhibition kit, and BD GENTEST (459100, 459300, 459400, 459500) was used as the CYP1A2, CYP2C9, CYP2C19, and CYP3A4 inhibition kit.” left out
as §3, with “Upon completion of the reaction, the reactant was transferred onto the white plate, and then fluorescence was measured with a microplate reader (CYP 1A2 and CYP 2C19 excitation wavelength: 410 nm, absorption wavelength: 460 nm; CYP 2C9 and CYP 3A4 excitation wavelength: 409 nm, absorption wavelength: 530 nm).” left out

CYP2D6 = CYP2D6 (Homo sapiens (Human), UniProt P10635); test: CYP inhibition (Invitrogen Vivid kit); format: in vitro ADME; settings: P450 BACULOSOMES reagent (Invitrogen Vivid CYP2D6 kit P2862), probe Vivid CYP450 substrate, read-out: CYP inhibition (%) 2D6
CYP2D6, sequence (P10635 whole entry): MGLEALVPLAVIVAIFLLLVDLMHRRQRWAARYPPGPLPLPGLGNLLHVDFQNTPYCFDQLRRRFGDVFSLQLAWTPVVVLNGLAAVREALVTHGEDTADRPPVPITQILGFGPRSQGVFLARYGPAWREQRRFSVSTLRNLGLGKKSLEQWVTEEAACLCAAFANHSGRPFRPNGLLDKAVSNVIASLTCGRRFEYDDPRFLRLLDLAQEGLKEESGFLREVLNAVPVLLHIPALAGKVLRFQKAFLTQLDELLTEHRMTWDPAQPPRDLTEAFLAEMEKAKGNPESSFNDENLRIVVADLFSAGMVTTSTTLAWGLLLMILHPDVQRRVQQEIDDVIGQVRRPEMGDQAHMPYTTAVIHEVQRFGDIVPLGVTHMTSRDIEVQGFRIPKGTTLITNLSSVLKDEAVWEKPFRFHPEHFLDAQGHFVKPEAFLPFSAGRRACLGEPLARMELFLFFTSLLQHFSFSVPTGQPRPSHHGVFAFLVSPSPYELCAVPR
Text: as §2
P450 BACULOSOMES® reagent and reproducer (100×) included in Invitrogen kit were diluted in Vivid® CYP450 reaction buffer (2×) at the concentration that matched the target CYP450. The prepared 2.5× sample (80 μL) and the diluted P450 BACULOSOMES® reagent mixture (100 μL) were mixed in each well of U-bottom 96-well plate, followed by pre-culture for 20 minutes. Vivid® CYP450 substrate and NADP+ (100×) were diluted in Vivid® CYP450 reaction buffer (2×) at the concentration that matched the target CYP450 and the substrate. Upon completion of the pre-culture, substrate-NADP (nicotinamide adenine dinucleotide phosphate) mixed solution (20 μL) was added thereto, followed by reaction for 1 hour. Upon completion of the reaction, the reactant was transferred onto the white plate, and then fluorescence was measured with a microplate reader (CYP 2D6 excitation wavelength: 400 nm, absorption wavelength: 502 nm). […]

[3] = values in text, read-out: EC50, concentration promoting activation of GPR40 protein by 50%
[4] = oral dose 10 mg/kg, values in text

Structure (SMILES) | EC50 (GPR40; read-out: EC50) | EC50 (GPR40; [3]) | inhibition at 30 min, 10 µM (CYP3A4) | inhibition at 1.5 h, 10 µM (CYP2C9) | inhibition at 30 min, 10 µM (CYP2C19) | inhibition at 15 min, 10 µM (CYP1A2) | inhibition at 1 h, 10 µM (CYP2D6) | % AUC ([1]; oral dose 0.3 mg/kg) | % AUC ([1]; oral dose 1 mg/kg) | % AUC ([1]; oral dose 3 mg/kg) | % AUC ([1]; oral dose 10 mg/kg) | % AUC ([2]; oral dose 1 mg/kg) | % AUC ([2]; oral dose 3 mg/kg) | % AUC ([2]; oral dose 10 mg/kg) | hypoglycemic effect by that of the non-treated group [1, 4] | hypoglycemic effect compared to Comparative Example 1 at 10 mg/kg ([2]; oral dose 1 mg/kg) | hypoglycemic effect compared with the non-treated group [2, 4]
CC#C[C@@H](CC(=O)[O-])c1ccc(OCc2cccc(N3CCN(c4ccc(OC)cc4)CC3)c2)cc1.[Na+] [Example 47, sodium (S)-3-(4-(3-(4-(4-methoxyphenyl)piperazin-1-yl)benzyloxy)phenyl)hex-4-ynoate] | 0.2 to 0.3 µM |  |  |  |  |  |  | C (under 25.0%) | C (under 25.0%) | B (25.0-35.0%) | B (25.0-35.0%) | C (under 25.0%) | C (under 25.0%) | B (25.0-35.0%) |  |  | 
CC#CC(CC(=O)O)c1ccc(OCc2cccc(C3=CCC4(CC3)OCCO4)c2)cc1 (stereo not shown) [Example 1, 3-(4-(3-(1,4-dioxaspiro[4,5]dec-7-en-8-yl)benzyloxy)phenyl)hex-4-ynoic acid] |  |  | 12.7% | 42.8% | 18.3% | 0% | 1.9% |  |  |  |  |  |  |  |  |  | 
CC#C[C@@H](CC(=O)[O-])c1ccc(OCc2ccc(CN3Cc4ccccc4C3)cc2)cc1.[Na+] [Example 37, sodium (S)-3-(4-(4-(isoindoline-2-ylmethyl)benzyloxy)phenyl)hex-4-ynoate] |  |  |  |  |  |  |  | C (under 25.0%) | B (25.0-35.0%) | B (25.0-35.0%) | A (over 35.0%) | A (over 35.0%) | A (over 35.0%) | A (over 35.0%) | more than 35.0% | higher hypoglycemic effect | more than 35.0%

Second part, led by results:

EC50 (GPR40; read-out: EC50) | EC50 (GPR40; [3]) | inhibition at 30 min, 10 µM (CYP3A4) | inhibition at 1.5 h, 10 µM (CYP2C9) | inhibition at 30 min, 10 µM (CYP2C19) | inhibition at 15 min, 10 µM (CYP1A2) | inhibition at 1 h, 10 µM (CYP2D6) | Structure (SMILES) | % AUC ([1]; oral dose 0.3 mg/kg) | % AUC ([1]; oral dose 1 mg/kg) | % AUC ([1]; oral dose 3 mg/kg) | % AUC ([1]; oral dose 10 mg/kg) | % AUC ([2]; oral dose 1 mg/kg) | % AUC ([2]; oral dose 3 mg/kg) | % AUC ([2]; oral dose 10 mg/kg) | hypoglycemic effect by that of the non-treated group [1, 4] | hypoglycemic effect compared to Comparative Example 1 at 10 mg/kg ([2]; oral dose 1 mg/kg) | hypoglycemic effect compared with the non-treated group [2, 4]
< 0.2 µM | < 0.2 µM |  |  |  |  |  | CC#CC(CC(=O)O)c1ccc(OCc2ccc(CN3CC=C(c4ccccc4)CC3)cc2)cc1 (stereo not shown) [Example 14, 3-(4-(4-((4-phenyl-5,6-dihydropyridine-1(2H)-yl)methyl)benzyloxy)phenyl)hex-4-ynoic acid] | C (under 25.0%) | C (under 25.0%) | B (25.0-35.0%) | B (25.0-35.0%) | C (under 25.0%) | B (25.0-35.0%) | B (25.0-35.0%) |  |  | 
0.2 to 0.3 µM |  |  |  |  |  |  | CC#CC(CC(=O)O)c1ccc(OCc2cccc(C3=CCC(O)CC3)c2)cc1 (stereo not shown) [Example 5, 3-(4-(3-(4-hydroxycyclohex-1-enyl)benzyloxy)phenyl)hex-4-ynoic acid] | C (under 25.0%) | C (under 25.0%) | C (under 25.0%) | B (25.0-35.0%) | B (25.0-35.0%) | B (25.0-35.0%) | A (over 35.0%) |  |  | 
< 0.2 µM | < 0.2 µM |  |  |  |  |  | CC#C[C@@H](CC(=O)O)c1ccc(OCc2ccc(CN3CC=C(c4ccccc4)CC3)cc2)cc1 [Example 28, (S)-3-(4-(4-((4-phenyl-5,6-dihydropyridine-1(2H)-yl)methyl)benzyloxy)phenyl)hex-4-ynoic acid] | C (under 25.0%) | C (under 25.0%) | C (under 25.0%) | B (25.0-35.0%) | B (25.0-35.0%) | B (25.0-35.0%) | B (25.0-35.0%) |  |  | 
